Source: US20230130766A1 (SALK INSTITUTE FOR BIOLOGICAL STUDIES, priority 2020, published 2023)
pIC50: −log10 of the molar value.

Biological target: T1, ULK1 (Homo sapiens, UniProt O75385)
T1 sequence (O75385 1-1050): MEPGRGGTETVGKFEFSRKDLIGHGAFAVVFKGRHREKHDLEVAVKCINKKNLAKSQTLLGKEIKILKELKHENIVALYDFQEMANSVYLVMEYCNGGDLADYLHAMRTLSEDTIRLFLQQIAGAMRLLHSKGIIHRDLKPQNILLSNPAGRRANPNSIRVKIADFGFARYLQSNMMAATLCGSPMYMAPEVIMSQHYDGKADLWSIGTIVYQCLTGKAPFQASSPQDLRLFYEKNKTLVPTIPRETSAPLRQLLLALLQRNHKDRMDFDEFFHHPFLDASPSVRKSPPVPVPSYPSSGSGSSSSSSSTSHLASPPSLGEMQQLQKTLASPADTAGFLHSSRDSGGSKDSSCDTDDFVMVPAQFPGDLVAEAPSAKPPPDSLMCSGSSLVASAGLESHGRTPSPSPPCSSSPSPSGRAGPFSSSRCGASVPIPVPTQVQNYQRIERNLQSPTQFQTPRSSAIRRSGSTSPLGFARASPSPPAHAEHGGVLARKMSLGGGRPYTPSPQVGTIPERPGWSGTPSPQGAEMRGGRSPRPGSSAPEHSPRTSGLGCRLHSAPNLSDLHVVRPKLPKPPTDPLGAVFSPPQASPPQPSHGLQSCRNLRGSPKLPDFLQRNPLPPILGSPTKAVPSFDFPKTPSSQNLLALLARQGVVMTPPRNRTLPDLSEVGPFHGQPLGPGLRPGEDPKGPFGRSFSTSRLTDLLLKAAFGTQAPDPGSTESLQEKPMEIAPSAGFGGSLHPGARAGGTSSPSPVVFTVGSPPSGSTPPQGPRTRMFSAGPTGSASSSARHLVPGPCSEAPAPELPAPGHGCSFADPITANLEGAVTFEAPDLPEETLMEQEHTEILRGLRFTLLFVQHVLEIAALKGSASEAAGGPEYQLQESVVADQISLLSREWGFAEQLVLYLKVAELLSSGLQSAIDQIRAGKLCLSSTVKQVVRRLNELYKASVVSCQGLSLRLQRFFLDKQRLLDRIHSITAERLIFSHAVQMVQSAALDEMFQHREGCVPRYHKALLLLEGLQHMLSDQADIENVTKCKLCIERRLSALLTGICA
Assay: ULK1 inhibition assay
Assay type: biochemical
Conditions: * = tested as a mixture of regioisomers

Row | Structure (SMILES) | pIC50
1 | COc1cc(Nc2ncc(Br)c(Oc3ccccc3C(=O)N3CCCC3)n2)cc(OC)c1OC [Compound 277] | > 6.70
2 | FC(F)(F)c1cnc(Nc2cccc3ncccc23)nc1NC1CC1 [Compound 278] | < 5.70
3 | COc1cc(Nc2ncc(Br)c(Oc3ccccc3NC(=O)C3CC3)n2)cc(OC)c1OC [Compound 281] | > 6.70
4 | COc1cc(Nc2ncc(Br)c(Oc3ccccc3CN(C)C)n2)cc(OC)c1OC [Compound 283] | < 5.70
5 | O=C1CCc2cc(Nc3ncc(C(=O)O)c(NC4CC4)n3)ccc2N1 [Compound 286] | < 5.70
6 | N#Cc1cnc(NC2CC2)nc1Nc1ccc2c(c1)CCC(=O)N2 [Compound 287] | < 5.70
7 | COc1cc(Nc2ncc(Br)c(Oc3ccccc3-c3nc(C)co3)n2)cc(OC)c1OC [Compound 290] | < 5.70
8 | O=[N+]([O-])c1cnc(NC2CC2)nc1NC1CC1 [Compound 291b] | < 5.70
9 | COc1cc(Nc2ncc(Br)c(Nc3ccccc3)n2)cc(OC)c1OC [Compound 293] | > 6.70
10 | COC(=O)Nc1ccccc1Oc1nc(Nc2cc(OC)c(OC)c(OC)c2)ncc1Br [Compound 296] | > 6.70
11 | FC(F)(F)c1cnc(Nc2ccc3nc[nH]c3c2)nc1Nc1cc(C2CCC2)[nH]n1 [Compound 297] | > 6.70
12 | COc1cc(Nc2ncc(Br)c(Oc3ccccc3C(F)(F)F)n2)cc(OC)c1OC [Compound 299] | > 6.70
13 | O=C1CCc2cc(Nc3ncc(C(F)(F)F)c(Oc4ccccc4)n3)ccc2N1 [Compound 300a] | < 5.70
14 | O=C1CCc2cc(Nc3nc(Oc4ccccc4)ncc3C(F)(F)F)ccc2N1 [Compound 300b] | < 5.70
15 | O=C1CCCc2cc(Nc3ncc(C(F)(F)F)c(NC4CC4)n3)ccc21 [Compound 301] | > 6.70
16 | COc1cc(Nc2ncc(Br)c(Nc3ccccc3CO)n2)cc(OC)c1OC [Compound 303] | > 6.70
17 | Nc1ccc(Nc2ncc(C(F)(F)F)c(NC3CC3)n2)cc1 [Compound 304a] | > 6.70
18 | FC(F)(F)c1cnc(Nc2ccc(Nc3ncc(C(F)(F)F)c(NC4CC4)n3)cc2)nc1NC1CC1 [Compound 304b] | < 5.70
19 | FC(F)(F)c1cnc(Nc2ccc3c(c2)CCNC3)nc1NC1CC1 [Compound 309] | > 6.70
20 | CC(C)(C)OC(=O)NCCCNc1nc(Nc2ccc3c(c2)CCC(=O)N3)ncc1C(F)(F)F [Compound 310] | > 6.70
21 | O=C(C1CC1)N(C(=O)C1CC1)c1ccc(Nc2ncc(C(F)(F)F)c(NC3CC3)n2)cc1 [Compound 311] | > 6.70

Row | Structure (SMILES) | pIC50
22 | O=C(Nc1ccc(Nc2ncc(C(F)(F)F)c(NC3CC3)n2)cc1)C1CC1 [Compound 312] | > 6.70
23 | NCCCNc1nc(Nc2ccc3c(c2)CCC(=O)N3)ncc1C(F)(F)F [Compound 313] | > 6.70
24 | O=C1NC(=O)c2cc(Nc3ncc(C(F)(F)F)c(NC4CC4)n3)ccc21 [Compound 314] | > 6.70
25 | CNC(=O)CCOc1nc(Nc2cc(OC)c(OC)c(OC)c2)ncc1Br [Compound 316] | > 6.70
26 | COc1cc(Nc2ncc(Br)c(Nc3ccccc3O)n2)cc(OC)c1OC [Compound 317] | > 6.70
27 | CNC(=O)c1ccc(OC)cc1Oc1ncc(Br)c(Nc2cc(OC)c(OC)c(OC)c2)n1 [Compound 318b] | < 5.70
28 | COc1cc(Nc2ncc(Br)c(Oc3ccccc3NC(=O)C(C)(C)C)n2)cc(OC)c1OC [Compound 320] | < 5.70
29 | CC(=O)Nc1ccccc1Oc1nc(Nc2ccc3c(c2)OCO3)ncc1Br [Compound 321a] | < 5.70
30 | Nc1ccccc1Oc1nc(Nc2ccc3c(c2)OCO3)ncc1Br [Compound 321b] | > 6.70
31 | COc1cc(Nc2ncc(Br)c(Oc3ccccc3NC(=O)C(F)(F)F)n2)cc(OC)c1OC [Compound 323] | > 6.70
32 | COc1cc(Nc2ncc(Br)c(Oc3cccc4cccnc34)n2)cc(OC)c1OC [Compound 324a] | < 5.70
33 | CNC(=O)c1ccccc1Oc1nc(Nc2ccc3c(c2)CCC(=O)N3)ncc1Br [Compound 325] | < 5.70
34 | Oc1nc(Nc2cnc3[nH]ccc3c2)ncc1C(F)(F)F [Compound 326] | < 5.70
35 | CNC(=O)Cc1ccccc1Oc1nc(Nc2cc(OC)c(OC)c(OC)c2)ncc1Br [Compound 327] | < 5.70
36 | COc1cc(Nc2ncc(Br)c(Oc3ccccc3CNC(C)=O)n2)cc(OC)c1OC [Compound 328] | < 5.70
37 | COc1cc(Nc2ncc(Br)c(Oc3cccc4cc[nH]c34)n2)cc(OC)c1OC [Compound 329a] | < 5.70
38 | COc1cc(Nc2nc(Oc3cccc4cc[nH]c34)ncc2Br)cc(OC)c1OC [Compound 329b] | < 5.70
39 | COc1cc(Nc2ncc(Br)c(Oc3cccc4c3CCCC4)n2)cc(OC)c1OC [Compound 330a] | < 5.70
40 | COc1cc(Nc2nc(Oc3cccc4c3CCCC4)ncc2Br)cc(OC)c1OC [Compound 330b] | < 5.70
41 | COc1cc(Nc2ncc(Br)c(-n3nnc4ccccc43)n2)cc(OC)c1OC [Compound 331a] | < 5.70
42 | COc1cc(Nc2nc(-n3nnc4ccccc43)ncc2Br)cc(OC)c1OC [Compound 331b] | 5.70 to 6.70

Row | Structure (SMILES) | pIC50
43 | O=C(C1CC1)N1CCc2cc(Nc3ncc(C(F)(F)F)c(NC4CC4)n3)ccc2C1 [Compound 332] | > 6.70
44 | O=C1CCc2cc(Nc3ncc(C(F)(F)F)c(NCCCNC(=O)C4CC4)n3)ccc2N1 [Compound 333] | > 6.70
45 | O=c1[nH][nH]c(=O)c2cc(Nc3ncc(C(F)(F)F)c(NC4CC4)n3)ccc12 [Compound 334] | > 6.70
46 | COc1cc(Nc2ncc(Br)c(Oc3cccc4c3N(C(C)=O)CCC4)n2)cc(OC)c1OC [Compound 335a] | < 5.70
47 | COc1cc(Nc2nc(Oc3cccc4c3N(C(C)=O)CCC4)ncc2Br)cc(OC)c1OC [Compound 335b] | > 6.70
48 | COc1cc(Nc2ncc(Br)c(Oc3ccccc3O)n2)cc(OC)c1OC [Compound 336] | < 5.70
49 | CNC(=O)c1ccccc1COc1nc(Nc2cc(OC)c(OC)c(OC)c2)ncc1Br [Compound 338] | < 5.70
50 | CCN1CCOc2cc(Nc3nc(Nc4ccc5c(c4)CCC(=O)N5)ncc3Br)cnc21 [Compound 343] | > 6.70
51 | CCN1CCOc2cc(Nc3ncc(C(F)(F)F)c(NC4CC4)n3)cnc21 [Compound 344] | > 6.70
52 | COc1cc(Nc2ncc(Br)c(Oc3ccccc3NS(C)(=O)=O)n2)cc(OC)c1OC [Compound 345] | < 5.70
53 | COc1cc(Nc2ncc(C(F)(F)F)c(Oc3ccccc3N)n2)cc(OC)c1OC [Compound 346] | > 6.70
54 | O=C1CCc2cc(Nc3ncc(C(F)(F)F)c(Nc4ccccc4CO)n3)ccc2N1 [Compound 347] | > 6.70
55 | COc1cc(Nc2ncc(Cl)c(Nc3ccccc3CO)n2)cc(OC)c1OC [Compound 348] | < 5.70
56 | CC(=O)NNc1nc(Nc2ccc3c(c2)CCC(=O)N3)ncc1C(F)(F)F [Compound 350] | < 5.70
57 | COc1cc(Nc2ncc(Br)c(Oc3cccc4ccncc34)n2)cc(OC)c1OC [Compound 351] | < 5.70
58 | COc1cc(Nc2ncc(Br)c(Oc3cccc4[nH]nnc34)n2)cc(OC)c1OC [Compound 352] | < 5.70
59 | OCc1ccccc1Nc1nc(Nc2cc(F)c(F)c(F)c2)ncc1Br [Compound 353] | < 5.70
60 | COc1cc(Nc2ncc(Br)c(Oc3cccc(O)c3[N+](=O)[O-])n2)cc(OC)c1OC [Compound 354] | < 5.70
61 | COc1cc(Nc2ncc(Br)c(Oc3ccccc3C3=NC(C)(C)CO3)n2)cc(OC)c1OC [Compound 355] | < 5.70
